Publication PMC2853924 (Journal of medicinal chemistry, 2010)
Read-outs that look alike come from different tables or passages of the source.

How the values were obtained:
[1] = biological target: T1, σ2 receptor (Rattus norvegicus, UniProt Q5U3Y7); assay: σ2 receptor binding assay, [3H]DTG, rat liver membrane homogenates
T1 sequence (Q5U3Y7 1-176): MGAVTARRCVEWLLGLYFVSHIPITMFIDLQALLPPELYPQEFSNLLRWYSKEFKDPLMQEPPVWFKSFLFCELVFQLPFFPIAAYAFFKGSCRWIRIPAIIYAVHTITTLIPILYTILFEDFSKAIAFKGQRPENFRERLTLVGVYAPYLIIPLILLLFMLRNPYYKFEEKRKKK

[2] = biological target: T2, Torpedo VAChT (Tetronarce californica, UniProt P81721); details: for VAChT/sigma selectivity index (selectivity ratio): Ki (σ1 or σ2)/Ki (VAChT); for VAChT/σ selectivity (in words): based on selectivity index
T2 sequence (P81721 1-515): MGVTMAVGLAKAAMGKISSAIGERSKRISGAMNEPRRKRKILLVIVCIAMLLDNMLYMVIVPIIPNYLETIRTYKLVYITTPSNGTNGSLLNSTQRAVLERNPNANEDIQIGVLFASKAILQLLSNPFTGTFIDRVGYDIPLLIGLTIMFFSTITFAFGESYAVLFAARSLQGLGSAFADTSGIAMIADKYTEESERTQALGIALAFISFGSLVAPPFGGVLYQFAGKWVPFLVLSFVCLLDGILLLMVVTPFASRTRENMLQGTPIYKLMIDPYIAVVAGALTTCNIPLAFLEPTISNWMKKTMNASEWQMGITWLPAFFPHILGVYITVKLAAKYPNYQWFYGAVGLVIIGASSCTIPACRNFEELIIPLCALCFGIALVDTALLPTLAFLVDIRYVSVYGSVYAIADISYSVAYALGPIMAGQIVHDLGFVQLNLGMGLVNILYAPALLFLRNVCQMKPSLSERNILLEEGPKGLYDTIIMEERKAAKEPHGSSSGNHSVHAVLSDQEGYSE

[3] = biological target: σ1 receptor (Cavia porcellus, UniProt Q60492); assay type: binding, guinea pig
σ1 receptor, sequence (Q60492 whole entry): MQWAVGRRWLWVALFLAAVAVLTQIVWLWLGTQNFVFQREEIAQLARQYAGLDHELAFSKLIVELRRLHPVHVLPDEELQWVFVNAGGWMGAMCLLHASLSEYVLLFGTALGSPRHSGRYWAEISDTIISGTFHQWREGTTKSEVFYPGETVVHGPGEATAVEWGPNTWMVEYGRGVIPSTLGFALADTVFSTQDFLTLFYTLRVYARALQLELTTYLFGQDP

[4] = biological target: T2, Torpedo VAChT; details: read-out: VAChT (Ki [nM]), cited from earlier work

Structure (SMILES): Cl.Nc1cccc2c1C[C@@H](N1CCC(C(=O)c3ccc(Br)s3)CC1)[C@H](O)C2 [Compound 30g, 5-Amino-3-[4-(5-bromothien-2-yl)carbonylpiperidinyl]-2-hydroxy-1,2,3,4-tetrahydronaphthalene hydrochloride]
- Selectivity Index Ki-σ2/Ki-VAChT [1]: >2439.0
- VAChT/sigma selectivity index (selectivity ratio) [2]: greater than 1000
- Selectivity Index Ki-σ1/Ki-VAChT [3]: >2439.0

Structure (SMILES): Cl.Nc1cccc2c1C[C@@H](N1CCC(C(=O)c3cccs3)CC1)[C@H](O)C2 [Compound 30f, 5-Amino-3-[4-(thien-2-yl)carbonylpiperidyl]-2-hydroxy-1,2,3,4-tetrahydronaphthalene hydrochloride]
- Selectivity Index Ki-σ2/Ki-VAChT [1]: >204.1
- Selectivity Index Ki-σ1/Ki-VAChT ([3]; Ki (σ1)/Ki (VAChT)): >204.1

Structure (SMILES): Cl.O=C(c1ccccc1)C1(c2ccccc2)CCN([C@@H]2Cc3ccccc3C[C@H]2O)CC1 (relative stereo) [Compound 22a, trans-3-(4-Benzoyl-4-phenylpiperidinyl)-2-hydroxy-1,2,3,4-tetrahydronaphthalene hydrochloride]
- fold less potent at VAChT than benzovesamicol (2) ([2]; relative to benzovesamicol (2)): 30 fold

Structure (SMILES): Cl.O=C(c1ccc(I)s1)C1CCN([C@@H]2Cc3ccccc3C[C@H]2O)CC1 (relative stereo) [Compound 28h, trans-3-[4-(5-Iodothienylcarbonyl)piperidinyl]-2-hydroxy-1,2,3,4-tetrahydronaphthalene hydrochloride]
- VAChT/σ selectivity (in words) [2]: high VAChT/σ selectivity

Structure (SMILES): Cl.O=C(C1CCN([C@@H]2Cc3ccccc3C[C@H]2O)CC1)N1CCC(c2ccccc2)CC1 (relative stereo) [Compound 34b, trans-3-[4-(4-Phenylpiperidyl)carbonylpiperidyl]-2-hydroxy-1,2,3,4-tetrahydronaphthalene hydrochloride]
- Selectivity Index Ki-σ2/Ki-VAChT [1]: >483.1

Structure (SMILES): Cl.Nc1cccc2c1C[C@@H](O)[C@H](N1CCC(C(=O)c3cccs3)CC1)C2 [Compound 31f, 8-Amino-3-[4-(thien-2-yl)carbonylpiperidyl]-2-hydroxy-1,2,3,4-tetrahydronaphthalene hydrochloride]
- Selectivity Index Ki-σ2/Ki-VAChT [1]: >7.5
- Selectivity Index Ki-σ1/Ki-VAChT [3]: >7.5

Structure (SMILES): O=C(c1ccc(F)cc1)C1CCN([C@@H]2Cc3ccccc3C[C@H]2O)CC1 (relative stereo) [Compound 28b, trans-3-[4-(4-fluorobenzoyl)piperidinyl]-2-hydroxy-1,2,3,4-tetrahydronaphthalene]
- Ki [4]: 2.7 ± 0.4 nM

Structure (SMILES): Cl.O=C(c1ccccc1)C1(c2ccccc2)CCN([C@@H]2CCCC[C@H]2O)CC1 [Compound 20, 2-(4-Benzoyl-4-phenylpiperidinyl)cyclohexanol hydrochloride]
- fold lower affinity for VAChT than vesamicol (1) ([2]; relative to vesamicol (1)): 35 fold

Structure (SMILES): Cl.Nc1cccc2c1C[C@@H](N1CCC(C(=O)c3ccc(F)cc3)CC1)[C@H](O)C2 [Compound 30b, 5-Amino-3-[4-(p-fluorobenzoyl)piperidinyl]-2-hydroxy-1,2,3,4,-tetrahydronaphthalene hydrochloride]
- Selectivity Index Ki-σ2/Ki-VAChT [1]: >416.7
- Selectivity Index Ki-σ1/Ki-VAChT [3]: >416.7

Structure (SMILES): Cl.O=C(c1ccc(I)s1)C1CCN([C@@H]2CCCC[C@H]2O)CC1 [Compound 27h, 2-[4-(5-Iodothien-2-yl)carbonylpiperidinyl]cyclohexanol hydrochloride]
- affinity for σ1 receptors (class in words) [3]: high (high (Ki = 1–10 nM))

Structure (SMILES): Nc1cccc2c1CC(N1CCC(c3ccccc3)CC1)C(O)C2 (stereo not shown) [Compound 3, reference compound]
- Ki ([4]; Torpedo synaptic vesicles): 0.0065 ± 0.0005 nM

Structure (SMILES): Cl.O=C(c1ccc(Br)s1)C1CCN([C@@H]2Cc3ccccc3C[C@H]2O)CC1 (relative stereo) [Compound 28g, trans-3-[4-(5-Bromothienylcarbonyl)piperidinyl]-2-hydroxy-1,2,3,4-tetrahydronaphthalene hydrochloride]
- VAChT/σ selectivity (in words) [2]: high VAChT/σ selectivity

Structure (SMILES): Cl.O=C(C1CCN([C@@H]2Cc3ccccc3C[C@H]2O)CC1)N1CCCCC1 (relative stereo) [Compound 34a, Trans-3-[4-(piperidyl)carbonylpiperidyl]-2-hydroxy-1,2,3,4-tetrahydronaphthalene hydrochloride]
- Selectivity Index Ki-σ2/Ki-VAChT [1]: >32.3
- Selectivity Index Ki-σ1/Ki-VAChT ([3]; Ki (σ1)/Ki (VAChT)): >32.3

Structure (SMILES): Cl.Nc1cccc2c1C[C@@H](N1CCC(C(=O)c3ccc(Br)cc3)CC1)[C@H](O)C2 [Compound 30c, 5-Amino-3-[4-(p-bromobenzoyl)piperidinyl]-2-hydroxy-1,2,3,4,-tetrahydronaphthalene hydrochloride]
- VAChT/sigma selectivity index (selectivity ratio) [2]: greater than 500

Structure (SMILES): Cl.O=C(C1CCN([C@@H]2Cc3ccccc3C[C@H]2O)CC1)N1CCN(Cc2ccccc2)CC1 (relative stereo) [Compound 34d, trans-3-[4-(4-Benzylpiperazinyl)carbonylpiperidyl]-2-hydroxy-1,2,3,4-tetrahydronaphthalene hydrochloride]
- Selectivity Index Ki-σ2/Ki-VAChT [1]: >480.8
- VAChT/σ selectivity (in words) [2]: moderate selectivity

Structure (SMILES): Cl.O=C(C1CCN([C@@H]2Cc3ccccc3C[C@H]2O)CC1)N1CCC(Cc2ccccc2)CC1 (relative stereo) [Compound 34c, trans-3-[4-(4-Benzylpiperidyl)carbonylpiperidyl]-2-hydroxy-1,2,3,4-tetrahydronaphthalene hydrochloride]
- Selectivity Index Ki-σ2/Ki-VAChT [1]: >416.7

Structure (SMILES): CCOC(=O)C1CCN([C@@H]2Cc3ccccc3C[C@H]2O)CC1.Cl (relative stereo) [Compound 34e, trans-3-[4-Ethoxycarbonylpiperidyl]-2-hydroxy-1,2,3,4-tetrahydronaphthalene hydrochloride]
- Selectivity Index Ki-σ2/Ki-VAChT [1]: >14.6
- Selectivity Index Ki-σ1/Ki-VAChT ([3]; Ki (σ1)/Ki (VAChT)): >14.6
